The target in one data set is T1, TRPC7 (Homo sapiens, UniProt Q9HCX4).
T1 construct: expressed in transfected cells; host or cells: HEK293 (transient transfection)
T1 sequence (Q9HCX4 1-862): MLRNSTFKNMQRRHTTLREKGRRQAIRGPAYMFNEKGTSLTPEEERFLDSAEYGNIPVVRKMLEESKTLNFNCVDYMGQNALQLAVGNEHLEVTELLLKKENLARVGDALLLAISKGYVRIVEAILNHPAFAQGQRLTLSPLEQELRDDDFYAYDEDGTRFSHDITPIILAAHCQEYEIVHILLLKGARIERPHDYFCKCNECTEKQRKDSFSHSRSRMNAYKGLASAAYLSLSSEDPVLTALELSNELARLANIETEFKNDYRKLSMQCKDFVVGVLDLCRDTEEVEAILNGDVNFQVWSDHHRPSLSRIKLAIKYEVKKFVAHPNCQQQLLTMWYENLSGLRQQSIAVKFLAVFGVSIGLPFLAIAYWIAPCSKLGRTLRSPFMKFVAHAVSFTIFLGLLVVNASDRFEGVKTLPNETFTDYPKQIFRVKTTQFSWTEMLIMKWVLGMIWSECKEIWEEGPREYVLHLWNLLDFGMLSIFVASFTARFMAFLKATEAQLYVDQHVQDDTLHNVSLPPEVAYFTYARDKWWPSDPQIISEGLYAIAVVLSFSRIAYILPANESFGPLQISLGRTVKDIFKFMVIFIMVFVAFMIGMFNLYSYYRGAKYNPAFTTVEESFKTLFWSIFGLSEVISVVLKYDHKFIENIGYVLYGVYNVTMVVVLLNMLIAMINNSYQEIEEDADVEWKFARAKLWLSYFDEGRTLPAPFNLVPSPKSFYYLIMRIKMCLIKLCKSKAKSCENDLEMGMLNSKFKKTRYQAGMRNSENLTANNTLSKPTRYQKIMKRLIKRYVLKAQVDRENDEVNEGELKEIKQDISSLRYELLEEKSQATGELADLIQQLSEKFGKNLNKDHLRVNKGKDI
Briefly: OAG-induced Ca2+ entry in Fura2-loaded HEK293 cells overexpressing TRPC7. It counts as cell-based. How it is done: Inhibition of DAG-mediated TRPC activation. To determine if ELP-004 (N-MeDCPA) inhibits DAG-induced TRPC activation, HEK293 cells expressing TRPC3, TRPC6 or TRPC7 were loaded with Fura2 and incubated with ELP-004 (0 to 1 mM) for 10 minutes prior to challenging with 1-Oleoyl-2-acetyl-sn-glycerol (OAG), a membrane permeable form of diacylglycerol.
Cell Culture—HEK293 cells were grown in DMEM with 4.5 g/L glucose supplemented with 10% FBS and 1% Gentamycin (Full DMEM media; Thermo-Fisher Scientific, Waltham, MA) at 37° C. and 5% CO2. […]
TRPC activity assay—Cells grown on glass coverslips were incubated in a cation-safe buffer (107 mM NaCl, 7.2 mM KCl, 1.2 mM MgCl2, 11.5 mM Glucose, 20 mM HEPES-NaOH, 1 mM CaCl2), pH 7.2) and loaded with Fura2-acetoxymethylester (Fura2-AM; 2 μM) for 30 min at 24° C. as previously described^10,11. […] Ca^2+/Sr^2+ measurements were taken using a Leica DMI 6000B fluorescence microscope controlled by Slidebook software (Intelligent Imaging Innovations, Denver, CO). Fluorescence emission at 505 nm was monitored in response to excitation at alternating 340 nm and 380 nm wavelengths at a frequency of 0.67 Hz; intracellular Ca^2+ measurements are shown at 340/380 nm ratios obtained from groups of 35-45 single cells. […]

Data set [1] in a line: Metabolite formation in human liver S9. It counts as in vitro ADME. The following applies: cofactors-fortified human liver S9, 37 degrees centigrade, 1 hour; LC-MS/MS. The protocol: Drug Synthesis—ELP-004 (N-MeDCPA) was synthesized as described in U.S. patent Ser. No. 10/682,320. […] Metabolites formed after incubations using either cofactors-fortified mouse or human liver S9 (mouse liver S9; human liver S9) at 37 degrees centigrade for 1 hour. The reaction was quenched by ultracentrifugation. The supernatant was analyzed using LC-MS/MS analysis using Accela LC (Thermo Scientific, Inc., San Jose, CA) coupled to an LTQ LX or to LTQ Orbitrap XL.
ELP-004 is N-(3,4-dichlorophenyl)-N-methylpropanamide. The core structure of ELP-004 is an aniline compound. Aniline compounds, generally, have a high risk of forming reactive metabolites. ELP-004 was specifically designed to preclude formation of reactive metabolites. Methylation of the amide nitrogen improves metabolic stability.

Like-named read-outs stand apart in the source and are kept apart here.

As a reminder, the IC50 is the midpoint of a concentration-inhibition curve. With `CCC(=O)N(C)c1ccc(Cl)c(Cl)c1` [ELP-004, N-(3,4-dichlorophenyl)-N-methylpropanamide], the IC50 on TRPC7 (FIG. 5, TRPC O/E cells, OAG, Ca2+ present, read-out: TRPC7 IC50) was 9 nM; on TRPC7 (HEK293 expressing TRPC7, ELP-004 0 to 1 mM for 10 minutes before OAG, FIG. 1D, read-out: IC50, inhibition of OAG-induced Ca2+ entry), 1000 to 2000 nM. The “formation of reactive or toxic metabolites” value in data set [1] is reported as “No reactive or toxic compounds were formed”.

The record behind these values is patent US20240058283A1, “THE MODE OF ACTION OF N-MeDCPA ON TRPC CHANNELS” (West Virginia University Board of Governors on Behalf of …, priority 2022, published 2024).
